These compounds were tested against HSV-1 TK (Human alphaherpesvirus 1 strain KOS, UniProt P17402) (assay: Thymidine kinase inhibitory assay). Settings: 1 μM [^3 H]thymidine, 5 mM ATP, pH 7.5, 37° C., 1 hour; 0-20 μM inhibitor; slope replots of Lineweaver-Burk plots.
Type: biochemical
Protocol: The reaction (50 μl) was performed in: 50 mM Tris-HCl pH 7.5, 5 mM MgCl2, 30 mM KCl, 2 mM dithiothreitol, 5 mM ATP, 1 μM [^3 H]thymidine, 0-20 μM potential inhibitor, 0.075 mg/ml bovine serum albumin, 0.1 unit/ml HSV-1 TK. Incubation was at 37° C. for 1 hour. Samples (40 μl) were spotted on DE-81 filter disks, washed with 1 mM ammonium formate (pH 7), three times with water, twice with ethanol, and dried. Radioactivity was quantitated in a scintillation counter.
TK (thymidine kinase) was affinity purified from HSV-1 (KOS) infected cells by published procedures (Fyfe (1982) Mol. Pharmacol. 21:432-437 and Field et al. (1990) Antiviral Res. 13:41-52). One unit is defined as 1 nanomole thymidine phosphorylated per hour.
In Table 2, inhibition constants were determined from slope replots (1/slope vs [I]) of Lineweaver-Burk plots. "N" indicates the number of experiments, and each experiment was done in triplicate.

Sequence of HSV-1 TK (P17402 whole entry, looked up): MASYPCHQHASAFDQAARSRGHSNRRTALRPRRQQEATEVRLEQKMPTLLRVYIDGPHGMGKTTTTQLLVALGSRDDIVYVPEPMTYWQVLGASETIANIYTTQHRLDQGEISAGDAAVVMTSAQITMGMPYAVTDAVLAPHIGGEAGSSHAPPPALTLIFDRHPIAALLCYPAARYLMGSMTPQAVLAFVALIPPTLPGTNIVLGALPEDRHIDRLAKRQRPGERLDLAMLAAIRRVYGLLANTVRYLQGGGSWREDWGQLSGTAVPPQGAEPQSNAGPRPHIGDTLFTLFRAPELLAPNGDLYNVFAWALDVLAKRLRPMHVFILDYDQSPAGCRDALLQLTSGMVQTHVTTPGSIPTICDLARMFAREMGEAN

| Compound | Ki [µM] |
| --- | --- |
| CO[C@H]1O[C@@H](n2cc(C)c(=O)[nH]c2=O)C[C@@H]1O (single isomer, unassigned) [Compound 2] | 3.2 ± 0.3 |
| Cc1cn([C@H]2C[C@H](O)[C@@H](OCCc3ccccc3)O2)c(=O)[nH]c1=O [Compound 12] | 26 |
| Cc1cn([C@H]2C[C@@H](O)[C@H](OCCc3ccccc3)O2)c(=O)[nH]c1=O [Compound 13] | 4.3 ± 1.8 |
| Cc1cn([C@H]2C[C@@H](O)[C@H](OCc3ccc(Br)cc3)O2)c(=O)[nH]c1=O [Compound 16] | 10.1 ± 4.7 |
